Results as given in patent US20050214217A1 (priority 2004, published 2005).
“Also recorded” adds a separate entry of the source.

Assays:
[1] = system: Bomapin mRNA in peripheral human T-cells; test: Bomapin expression by quantitative RT-PCR in peripheral human T-cells; assay type: cell-based
Procedure: PCR was performed for 30 cycles. The ethidium bromide bands corresponding to the amplified bomapin transcripts were quantified by AlphaEase program (Alpha Innotech, San Leandro, Calif., USA). Each PCR tube contained four oligonucleotides primers, two for the Bomapin and two for the internal control (S-14).
Neurotransmitters, agonists and antagonists were added and the cells were incubated at 37 C°, 5% CO2 for up to 72 hours, as indicated for individual experiments. The incubated T-cells were then collected and used for further experimentation.
Total RNA was extracted by using Trizol RNA isolation reagent (Molecular Research Center, Cincinnati, Ohio) based on the acid guanidinium thiocyanate-phenol-chloroform extraction method, according to manufacturer recommendations. RT-PCR was used to amplify the levels of endogenous Bomapin mRNA that may be present in the peripheral human T-cells and in the Jurkat cells (a human mature leukemic cell line that phenotypically resembles resting human T lymphocytes). The expression of the ribosomal protein S-14, derived from the same tissue preparations, served as an internal control. Each reaction contained four oligonucleotides primers, two for Bomapin and two for the internal control S-14. PCR conditions were: cDNA equivalent to 50 ng RNA was amplified for 30 cycles, the annealing temperature was 60° C. and the final MgCl2 concentration was 2.5 mM. […]

normal human T-cells [2] = test: T-cell adhesion assay to fibronectin and laminin; assay type: cell-based; conditions: for Blocking of the glutamate effect on integrin-mediated T-cell adhesion to laminin and fibronectin: Glutamate 10 nM
Procedure: Adhesion of untreated cells (BG) serves as a control. The results are expressed as the OD405 of the lysed, fibronectin- or laminin-adherent cells remaining after incubation and repeated washings.
Adhesion of T-cells to fibronectin and laminin was assayed as follows: normal human T-cells, purified from a fresh blood sample, were suspended (1×10^6 cells/ml) in rest medium (RPMI-1640, supplemented with 10% fetal calf serum (Sigma Chemical Co., St. Louis, Mo.), 1% antibiotics, 1% glutamine (Biological Industries, Beit Haemek, Israel) and 0.4% fungizone (GibcoBRL, Life Technologies Ltd., Paisley, Scotland)). […] Following incubation the cells were washed and resuspended in adhesion medium (RPMI-1640 supplemented with 0.1% bovine serum albumin (BSA, Sigma)). The cells were then seeded in 96 well flat-bottomed microtiter plates (Falcon, Becton Dickinson, Heidelberg, Germany, 1×10^5 cells/100 μl/well pre-coated with fibronectin or laminin (ICN Biomedicals Inc., Aurora, Ohio, […], 18 hours, 4° C.). Cells treated with phorbol 12-myristate 13-acetate (PMA, Sigma, 10 ng/ml) served as a positive control. The adhesion plates were incubated (37° C., 30 minutes, 7.5% CO2 humidified incubator), and then washed several times with PBS to remove non-adherent T-cells. The adhered cells were lysed by adding 60 μl/well of lysis-substrate solution (0.5% Triton X-100 in water mixed with an equal volume of 7.5 mM p-nitrophenol-N-acetyl-β-D-glucosaminide (Sigma, St. Louis, Mo.) in 0.1M citrate buffer pH=5.0). The plates were then incubated for 18 h in a CO2-devoid 37° C. incubator, and the reaction was stopped by the addition of […] of 50 mM glycine (Sigma, St Louis, Mo.) pH=10.4, containing 5 mM EDTA. The optical density (OD) was measured at 405 nm in a standard ELISA reader. The OD was converted to actual number of cells using a standard curve performed in each experiment.

[3] = system: human T-cell lukemia (Jurkat) cells; test: Bomapin expression in Jurkat cells; assay type: cell-based
Description: (§1) Total RNA was extracted by using Trizol RNA isolation reagent (Molecular Research Center, Cincinnati, Ohio) based on the acid guanidinium thiocyanate-phenol-chloroform extraction method, according to manufacturer recommendations. RT-PCR was used to amplify the levels of endogenous Bomapin mRNA that may be present in the peripheral human T-cells and in the Jurkat cells (a human mature leukemic cell line that phenotypically resembles resting human T lymphocytes). The expression of the ribosomal protein S-14, derived from the same tissue preparations, served as an internal control. Each reaction contained four oligonucleotides primers, two for Bomapin and two for the internal control S-14. PCR conditions were: cDNA equivalent to 50 ng RNA was amplified for 30 cycles, the annealing temperature was 60° C. and the final MgCl2 concentration was 2.5 mM. The Taq DNA polymerase used in this study was the BIO-X-ACT DNA polymerase (Bioline UK Ltd., London. UK). The PCR products were separated electrophoretically on a 1.5% agarose gel containing ethidium bromide, and visualized under UV light.

[4] = system: resting human peripheral T-cells; test: Gene expression analysis with Atlas human cDNA expression array; assay type: cell-based; conditions: Glutamate 10 nM, 72 hours, autoradiography and densitometry
Description: FIGS. 1A-1D are tables illustrating the Glutamate-induced regulation of specific gene expression in the human T-cell, through analysis of gene expression using the atlas human cDNA expression array. […] The cDNA was hybridized to the atlas membranes according to the manual, and expression was visualized by autoradiography. […] Note the enhanced expression of T-cell genes such as Rapamycin-selective-25 KD Immunophilin (FKBP-25), Heat shock protein 40 (Hsp 40), Cathepsin E presursor, Carbonic anhydrase-related protein (carp) (ca-viii), peptidyl-glycine alpha-amidating monooxygenase presursor (pam), and axonemal dynein heavy chain (fragment) as well as of genes whose expression has been previously undetected in T cells such as Stimulator of Fe Transport (SFT), oviductal glycoprotein, Clathrin light chain, Protein Inhibitor of Activated STAT (PIAS) and Cartilage Intermediate Layer Protein (CILP) (FIG. 1A).
Hybridizations to the Atlas Human cDNA Expression Arrays membranes (Catalog No. 1.2 KIII (7850-1) and III (7855-1), Clontech Laboratories) were performed by Clonetech Laboratories, as described in the user manual. Analysis of the expression pattern of up and down regulated genes, as compared to that of untreated T-cells, was performed by Clontech, as described in their manual. […]

[5] = system: cloned resting human Th2 cells (clone 401); test: Cytokine secretion by ELISA, resting cloned Th2 cells; assay type: cell-based; conditions: 10^−8 M Glutamate, no antigen stimulation, versus untreated
Procedure: The results are expressed as pg/ml IL-4. Note the clear induction of IL-4 secretion in the Glutamate-treated cells, absent in the non-activated cells.
(§2) Human T-cell clones were prepared essentially as described by Besser M and Wank J (Besser M and Wank J, J Immunol 1999; 162:6303-306): Human PBMC were purified from whole blood by Ficoll gradient (Amersham Pharmacia Biotech, Freiburg, Germany). CD4^+ Th (T-helper) cells were isolated by using CD4 mAbs coupled to magnetic beads (Dynal, Hamburg, Germany). T cells were cultured at 1-2×10^6 cells/ml either in the presence of 1% PHA (Difco, Hamburg, Germany), 20 μg of anti-CD3 (OKT-3, Cilag, Sulzbach, Germany)-precoated plates in combination with IL-2 (20 U/ml) or IL-4 (100 U/ml), or with 100 ng/ml neurotrophins (Prepro, London, England), 20 U/ml IL-2 (Chiron, Ratingen, Germany), 100 U/ml IL-4 (Genzyme, Ruesselsheim, Germany) or 500 U/ml IFN-γ (Thomae, Bicherach an der Riss, Germany) alone. RPMI 1640 culture medium (Life Technologies, Eggenstein, Germany) was supplemented with 10% FCS (Life Technologies). […] Constitutive expression in immune cell bulk cultures was assessed immediately after cell separation, in cloned T lymphocytes after 3 days without further addition of IL-2.
(§3) Cytokine levels were measured in supernatants from Glutamate stimulated human T-cell cultured as described hereinabove. […]

[6] = system: cloned resting human Th1 cells (clone 305); test: Cytokine secretion by ELISA, resting cloned Th1 cells; assay type: cell-based; conditions: 10^−8 M Glutamate, versus untreated
Procedure: The results are expressed as pg/ml IL-10.
The results are expressed as pg/ml IL-4.
as §2, with “Technologies). Alloprimed PBMC were seeded at 0.4 cell/well on allogeneic specific feeder layer.” for “Technologies).”
as §3

[7] = system: cloned human Th0 cells (clone 234); test: IFN-γ secretion by ELISA, activated (alloprimed) cloned Th0 cells; assay type: cell-based; conditions: 20 hours, 10^−8M Glutamate plus mismatched allopriming B cells, versus antigen stimulation alone
Procedure: (§4) The results are expressed as pg/ml IFN-γ.
as §2, with “Technologies). Alloprimed PBMC were seeded at 0.4 cell/well on allogeneic specific feeder layer.” for “Technologies).”
as §3

[8] = system: cloned human Th1 cells (clone 305); test: IFN-γ secretion by ELISA, activated (alloprimed) cloned Th1 cells; assay type: cell-based; conditions: 20 hours, 10^−8M Glutamate plus mismatched allopriming B cells, versus antigen stimulation alone
Procedure: as §4
as §2, with “Technologies). Alloprimed PBMC were seeded at 0.4 cell/well on allogeneic specific feeder layer.” for “Technologies).”
as §3

normal human T-cells [9] = test: In-vitro chemotactic migration assay towards SDF-1; assay type: cell-based; conditions: pre-treatment 66 hours, Glutamate 10^−8, fibronectin-coated filters
Procedure: FIG. 8 illustrates the Glutamate-induced migration of normal human T-cells towards the chemokine SDF-1. […] The cells in each experimental group were counted by FACSORT. The results are expressed as the number of fluorescently-labeled migrating Glutamate-treated T-cells vs. untreated controls (Untreated).
The cells were then washed, resuspended in adhesion medium, and added to the upper chambers (2×10^5 cells per 100 μl well) of a 24-well chemotaxis microchamber plate (Corning Inc., Corning, N.Y.). The two compartments of the microchambers were separated by polycarbonate filters ([…]) pre-coated with fibronectin or laminin ([…], about 1.5 hour, 37° C.). The lower chambers contained adhesion medium, which was supplemented, where indicated, with 100-250 ng/ml of the chemokine stromal cell-derived factor 1a (SDF-1a, Peprotech Inc., Rocky Hill, N.J.). The chemotaxis microchamber plate was incubated (3 hours, 37° C., 7.5% CO2 humidified incubator), the filter-containing upper chambers were gently removed and the contents of the individual lower chambers (containing the migrated cells) thoroughly mixed by pipetting and transferred into clean tubes. The number of cells in each tube was determined by FACSORT. Counting time for all the experimental groups was two minutes. […]

[10] = system: GluR3 mRNA in normal human T-cells; test: GluR3 mRNA expression by RT-PCR; assay type: cell-based; conditions: Glutamate 10 mM, 24 hours
Description: FIGS. 10A and 10B are ethidium bromide stained gels of RT-PCR amplified cDNA from two similar experiments.
as §1, with “from cultured T-cells” for “by”, “RT-PCR was used to amplify the levels of endogenous Bomapin mRNA that may be present in the peripheral human T-cells and in the Jurkat cells (a human mature leukemic cell line that phenotypically resembles resting human T lymphocytes).” left out, “cell” for “tissue”, “GluR3” for “Bomapin”
GluR3—5′[…] 3′ (SEQ. ID NO: 8) and 5′ […] 3′ (SEQ ID NO: 9) corresponding to nucleotides 699-718 (sense) and 1312-1331 (antisense) respectively. The predicted size of the band is […].

[11] = system: human peripheral lymphocytes; conditions: cited from earlier work
[12] = CNQX added to Glutamate during incubation
[13] = 10^−8M Glutamate, 30 minutes, versus untreated (BG)
[14] = PHA or mAb activated human peripheral lymphocytes

For N#Cc1cc2[nH]c(=O)c(=O)[nH]c2cc1[N+](=O)[O-] [CNQX], the “Glutamate-induced Bomapin transcripts in the presence of antagonist” value ([1]; T-cells treated with Glutamate in the presence of CNQX) was “absence of detectable Bomapin transcripts”, the “Effect on Glutamate-mediated fibronectin binding” value (normal human T-cells [2]; [12]) was “strongly inhibits” and the “Effect on Glutamate-mediated laminin binding” value (normal human T-cells [2]; [12]) was “strongly inhibits”. For the same compound, the “Blocking of the glutamate effect on integrin-mediated T-cell adhesion to laminin and fibronectin” value (normal human T-cells [2]) was “blocked specifically”.
In the case of N[C@@H](CCC(=O)O)C(=O)O [Glutamate], the “Bomapin mRNA level versus untreated cells” value ([1]; Glutamate 10 nM, 72 hours, 30 PCR cycles, S-14 internal control) is reported as “about 6 fold”, the Bomapin expression [3] is reported as “induces expression” and the “Differential pattern of gene expression versus untreated cells” value [4] is reported as “induced the over expression of mRNA encoding for several genes; also recorded: down-regulated the expression of others”. The IL-4 secretion [5] was “strong release of IL-4”, the “IL-4 secretion ("forbidden" cytokine)” value [6] was “significant induction” and the “IL-10 secretion ("forbidden" cytokine)” value [6] was “significant induction”. The IFN-γ secretion [7] was “additional significant IFN-γ secretion”, the IFN-γ secretion [8] was “additional significant IFN-γ secretion” and the “T-cell adhesion to fibronectin” value (normal human T-cells [2]; [13]) was “significant increase”. The “T-cell adhesion to laminin” value (normal human T-cells [2]; [13]) was “significant increase”, the “Migration towards the chemoattractant SDF-1 (number of migrating cells)” value (normal human T-cells [9]) was “significantly augments” and the “RT-PCR-amplified GluR3 cDNA transcripts” value [10] was “absence of RT-PCR-amplified GluR3 Glutamate receptor cDNA transcripts”. The “Ca++ influx and proliferation in activated lymphocytes” value [11, 14] was “induction of Ca^++ influx and proliferation” and the “Effect on unstimulated, resting lymphocytes” value ([11]; high levels (1 mM) of Glutamate) was “no effect”.
For O=C(O)c1cc(=O)c2ccccc2[nH]1 [KYNA, reference compound], the “Effect on Glutamate potentiation in activated lymphocytes” value [11, 14] is listed as “inhibition of Glutamate potentiation”.
For NS(=O)(=O)c1cccc2c1c([N+](=O)[O-])cc1nc(O)c(O)nc12 [NBQX, reference compound], the “Blocking of the glutamate effect on integrin-mediated T-cell adhesion to laminin and fibronectin” value (normal human T-cells [2]) is listed as “blocked specifically” and the “Effect on Glutamate potentiation in activated lymphocytes” value [11, 14] is listed as “inhibition of Glutamate potentiation”.
